Reference: patent publication US10294202B2, “Pyrrolidinones as herbicides” (FMC Corporation, priority 2013, dated 2019)

Legend:
ducksalad = assay: Test B flooded paddy test; assay type: in vivo, Heteranthera limosa; settings: Flood, scale of 0 to 100 where 0 is no effect and 100 is complete control
Method in brief: (§1)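 Plants grown to 2-leaf stage; pots flooded 3 cm above soil and compound applied directly into paddy water, depth held throughout. Visual rating against untreated controls after 13 to 15 days in greenhouse, 0 (no effect) to 100 (complete control).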

barnyardgrass [1] = assay: Test B flooded paddy test; assay type: in vivo, Echinochloa crus-galli; settings: Flood, scale of 0 to 100 where 0 is no effect and 100 is complete control
Method in brief: as §1

sedge, umbrella = assay: Test B flooded paddy test; assay type: in vivo, Cyperus difformis; settings: Flood, scale of 0 to 100 where 0 is no effect and 100 is complete control
Method in brief: as §1

crabgrass, large = assay: Test A pre-/postemergence herbicide test; assay type: in vivo, Digitaria sanguinalis
Method in brief: (§2)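 Seeds sown in loam soil/sand blend received a preemergence directed soil spray of test chemical in non-phytotoxic solvent with surfactant; postemergence plants (2–10 cm, one- to two-leaf stage) were sprayed with the same formulation. After about 10 days in greenhouse, injury was rated visually versus untreated controls, 0 (no effect) to 100 (complete control).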

pigweed = assay: Test A pre-/postemergence herbicide test; assay type: in vivo, Amaranthus retroflexus
Method in brief: as §2

morningglory = assay: Test A pre-/postemergence herbicide test; assay type: in vivo, Ipomoea spp.
Method in brief: as §2

velvetleaf = assay: Test A pre-/postemergence herbicide test; assay type: in vivo, Abutilon theophrasti
Method in brief: as §2

giant foxtail = assay: Test A pre-/postemergence herbicide test; assay type: in vivo, Setaria faberii
Method in brief: as §2

corn = assay: Test A pre-/postemergence herbicide test; assay type: in vivo, Zea mays
Method in brief: as §2

barnyardgrass [2] = assay: Test A pre-/postemergence herbicide test; assay type: in vivo, Echinochloa crus-galli
Method in brief: as §2

wheat = assay: Test A pre-/postemergence herbicide test; assay type: in vivo, Triticum aestivum
Method in brief: as §2

rice = assay: Test B flooded paddy test; assay type: in vivo, Oryza sativa; settings: Flood, scale of 0 to 100 where 0 is no effect and 100 is complete control
Method in brief: as §1

[3] = Postemergence, 1000 g ai/ha, 0 to 100 scale (0 no effect, 100 complete control)
[4] = Preemergence, 1000 g ai/ha, visual rating on 0 to 100 scale (0 no effect, 100 complete control), approx. 10 days
[5] = Postemergence, 125 g ai/ha, 0 to 100 scale, 0 is no effect, 100 is complete control
[6] = Postemergence, 500 g ai/ha, 0 to 100 scale (0 no effect, 100 complete control)
[7] = Preemergence, 125 g ai/ha, 0 to 100 scale where 0 is no effect and 100 is complete control
[8] = preemergence, 500 g ai/ha, 0 to 100 scale, 0 is no effect and 100 is complete control

`Cn1ccc(NC(=O)C2C(=O)NCC2c2ccc(F)c(F)c2)n1` (stereo not drawn) [Compound 31] was tested, and the “Plant response rating, Ducksalad” value (ducksalad; 250 g ai/ha) was 0, the “Plant response rating, Barnyardgrass” value (barnyardgrass [1]; 250 g ai/ha) was 0 and the “Plant response rating, Sedge, Umbrella” value (sedge, umbrella; 250 g ai/ha) was 0. The “Plant response rating, Crabgrass, Large” value (crabgrass, large; [3]) was 20, the “Plant response rating, Crabgrass, Large” value (crabgrass, large; [4]) was 80 and the “Plant response rating, Pigweed” value (pigweed; [3]) was 0. The “Plant response rating, Pigweed” value (pigweed; [4]) was 0, the “Plant response rating, Morningglory” value (morningglory; [3]) was 0 and the “Plant response rating, Velvetleaf” value (velvetleaf; [3]) was 0. The “Plant response rating, Velvetleaf” value (velvetleaf; [4]) was 0, the “Plant response rating, Foxtail, Giant” value (giant foxtail; [3]) was 20 and the “Plant response rating, Foxtail, Giant” value (giant foxtail; [4]) was 80. For the same molecule, the “Plant response rating, Corn” value (corn; [3]) was 30, the “Plant response rating, Corn” value (corn; [4]) was 20 and the “Plant response rating, Barnyardgrass” value (barnyardgrass [2]; [3]) was 60. The “Plant response rating, Barnyardgrass” value (barnyardgrass [2]; [4]) was 50, the “Plant response rating, Wheat” value (wheat; [3]) was 0 and the “Plant response rating, Wheat” value (wheat; [4]) was 50. The “Plant response rating, Rice” value (rice; 250 g ai/ha) was 0.
With `CS(=O)(=O)c1ccccc1NC(=O)C1C(=O)NCC1c1ccc(Cl)c(Cl)c1` (stereo not drawn) [Compound 43] the “Plant response rating, Ducksalad” value (ducksalad; 250 g ai/ha) was 0, the “Plant response rating, Barnyardgrass” value (barnyardgrass [1]; 250 g ai/ha) was 0 and the “Plant response rating, Sedge, Umbrella” value (sedge, umbrella; 250 g ai/ha) was 0. For the same molecule, the “Plant response rating, Crabgrass, Large” value (crabgrass, large; [3]) was 20, the “Plant response rating, Crabgrass, Large” value (crabgrass, large; [4]) was 90 and the “Plant response rating, Pigweed” value (pigweed; [3]) was 20. The “Plant response rating, Pigweed” value (pigweed; [4]) was 0, the “Plant response rating, Morningglory” value (morningglory; [3]) was 10 and the “Plant response rating, Morningglory” value (morningglory; [4]) was 0. For the same molecule, the “Plant response rating, Velvetleaf” value (velvetleaf; [3]) was 30, the “Plant response rating, Velvetleaf” value (velvetleaf; [4]) was 0 and the “Plant response rating, Foxtail, Giant” value (giant foxtail; [3]) was 50. The “Plant response rating, Foxtail, Giant” value (giant foxtail; [4]) was 80, the “Plant response rating, Corn” value (corn; [3]) was 0 and the “Plant response rating, Corn” value (corn; [4]) was 0. For the same molecule, the “Plant response rating, Barnyardgrass” value (barnyardgrass [2]; [3]) was 40, the “Plant response rating, Barnyardgrass” value (barnyardgrass [2]; [4]) was 20 and the “Plant response rating, Wheat” value (wheat; [3]) was 0. For the same molecule, the “Plant response rating, Wheat” value (wheat; [4]) was 0 and the “Plant response rating, Rice” value (rice; 250 g ai/ha) was 0.
In the case of `O=C1NCC(c2ccc(C(F)(F)F)c(Cl)c2)C1C(=O)Nc1ccccc1F` (racemic) [Compound 249], the “Plant response rating, Ducksalad” value (ducksalad; 1000 g ai/ha) was 85, the “Plant response rating, Barnyardgrass” value (barnyardgrass [1]; 1000 g ai/ha) was 55 and the “Plant response rating, Sedge, Umbrella” value (sedge, umbrella; 1000 g ai/ha) was 40. For the same molecule, the “Plant response rating, Crabgrass, Large” value (crabgrass, large; [5]) was 0, the “Plant response rating, Crabgrass, Large” value (crabgrass, large; [6]) was 40 and the “Plant response rating, Crabgrass, Large” value (crabgrass, large; [7]) was 80. For the same molecule, the “Plant response rating, Crabgrass, Large” value (crabgrass, large; [8]) was 90, the “Plant response rating, Pigweed” value (pigweed; [5]) was 0 and the “Plant response rating, Pigweed” value (pigweed; [6]) was 0. The “Plant response rating, Pigweed” value (pigweed; [7]) was 0, the “Plant response rating, Pigweed” value (pigweed; [8]) was 0 and the “Plant response rating, Morningglory” value (morningglory; [5]) was 0. For the same molecule, the “Plant response rating, Morningglory” value (morningglory; [6]) was 0, the “Plant response rating, Morningglory” value (morningglory; [7]) was 0 and the “Plant response rating, Morningglory” value (morningglory; [8]) was 0. For the same molecule, the “Plant response rating, Velvetleaf” value (velvetleaf; [5]) was 0, the “Plant response rating, Velvetleaf” value (velvetleaf; [6]) was 0 and the “Plant response rating, Velvetleaf” value (velvetleaf; [7]) was 0. The “Plant response rating, Velvetleaf” value (velvetleaf; [8]) was 0, the “Plant response rating, Foxtail, Giant” value (giant foxtail; [5]) was 20 and the “Plant response rating, Foxtail, Giant” value (giant foxtail; [6]) was 40. For the same molecule, the “Plant response rating, Foxtail, Giant” value (giant foxtail; [7]) was 50, the “Plant response rating, Foxtail, Giant” value (giant foxtail; [8]) was 90 and the “Plant response rating, Corn” value (corn; [5]) was 0. The “Plant response rating, Corn” value (corn; [6]) was 0, the “Plant response rating, Corn” value (corn; [7]) was 0 and the “Plant response rating, Corn” value (corn; [8]) was 0. The “Plant response rating, Barnyardgrass” value (barnyardgrass [2]; [5]) was 30, the “Plant response rating, Barnyardgrass” value (barnyardgrass [2]; [6]) was 50 and the “Plant response rating, Barnyardgrass” value (barnyardgrass [2]; [7]) was 50. For the same molecule, the “Plant response rating, Barnyardgrass” value (barnyardgrass [2]; [8]) was 80, the “Plant response rating, Wheat” value (wheat; [5]) was 0 and the “Plant response rating, Wheat” value (wheat; [6]) was 0. For the same molecule, the “Plant response rating, Wheat” value (wheat; [7]) was 0, the “Plant response rating, Wheat” value (wheat; [8]) was 0 and the “Plant response rating, Rice” value (rice; 1000 g ai/ha) was 15.
